# Assay results as given in patent publication EP1561465A2, “Methods of use of fluoroquinolone compounds against bacteria” (LG Life Sciences, Ltd., priority 1999, dated 2001).
# Read-outs that look alike come from different tables or passages of the source.
# Tests used:
# Assay type in all cases: cell-based
# [1] = tested on: Streptococcus pneumoniae and Haemophilus influenzae; assay: MIC by broth microdilution (NCCLS), all isolates pooled
# Staphylococcus aureus = assay: microbe, parasite or virus in culture
# E. coli = assay: microbe, parasite or virus in culture; details: Escherichia coli
# Enterococcus faecalis = assay: MIC by NCCLS broth microdilution, 1100 Japanese clinical isolates 1997-1998; details: for MIC50 / MIC90: Enterococcus faecalis; for MIC90: read-out: MIC90
# Morganella morganii = assay: as above
# Serratia marcescens = assay: as above
# Yersinia enterocolitica = assay: MIC by agar dilution (NCCLS M7-A4), 288 enteropathogenic isolates, gemifloxacin and 15 other antimicrobials; details: Yersinia enterocolitica N= 22
# [2] = Enterococcus faecalis ciprofloxacin resistant (n=15)
# [3] = Enterococcus faecalis ciprofloxacin susceptible (n=24)
structure (smiles),measurement,setting,value
"C[C@H]1COc2c(N3CCN(C)CC3)c(F)cc3c(=O)c(C(=O)O)cn1c23 [Levofloxacin, levofloxacin]",MIC90,"[1]; all (380) isolates tested (235 S. pneumoniae, 145 H. influenzae)",1 µg/mL
same,MIC90,[1]; all isolates tested (602),1 µg/mL
same,MIC Range,Staphylococcus aureus; Methicillin-resistant (38),0.25 to 128 µg/mL
same,MIC Range,Staphylococcus aureus; Methicillin-susceptible (9),0.125 to 1 µg/mL
same,MIC50,"Staphylococcus aureus; Staphylococcus aureus, Methicillin-resistant (38)",8 µg/mL
same,MIC90,"Staphylococcus aureus; Staphylococcus aureus, Methicillin-susceptible (9), read-out: MIC90",1 µg/mL
same,MIC,"Staphylococcus aureus; Staphylococcus aureus, S. aureus KU2240, mutant type Wild (wild strain)",0.25 µg/mL
same,MIC,"Staphylococcus aureus; Staphylococcus aureus, S. aureus KU2243, mutant type G+T (DNA gyrase and topoisomerase IV)",> 128 µg/mL
same,MIC,"Staphylococcus aureus; Staphylococcus aureus, S. aureus KU2245, mutant type G+T (DNA gyrase and topoisomerase IV)",32 µg/mL
same,MIC,"Staphylococcus aureus; Staphylococcus aureus, S. aureus KU2246, mutant type T (DNA topoisomerase IV)",1 µg/mL
same,MIC50,"E. coli; E. coli (13 strains), quinolone-resistant, read-out: MIC50",0.125 µg/mL
same,MIC90,"E. coli; E. coli (13 strains), quinolone-resistant, read-out: MIC90",1 µg/mL
same,MIC,"E. coli; E. coli KU1029, mutant type SP (spontaneous mutant in the DNA gyrase)",0.063 µg/mL
same,MIC,"E. coli; E. coli KU1030, mutant type SP",0.125 µg/mL
same,MIC,"E. coli; E. coli KU1031, mutant type SP",0.063 µg/mL
same,MIC,"E. coli; E. coli KU1032, mutant type SP",0.25 µg/mL
same,MIC,"E. coli; E. coli KU1033, mutant type SP",0.063 µg/mL
same,MIC,"E. coli; E. coli KU1034, mutant type GA (DNA gyrase A)",1 µg/mL
same,MIC,"E. coli; E. coli KU1035, mutant type GA (DNA gyrase A)",1 µg/mL
same,MIC,"E. coli; E. coli KU1036, mutant type GB (DNA gyrase B)",0.125 µg/mL
same,MIC,"E. coli; E. coli KU1038, mutant type SP",0.125 µg/mL
same,MIC,"E. coli; E. coli KU1039, mutant type SP",0.25 µg/mL
same,MIC,"E. coli; E. coli KU1040, mutant type SP",0.031 µg/mL
same,MIC,"E. coli; E. coli KU1041, mutant type SP",0.5 µg/mL
same,MIC,"E. coli; E. coli KU1042, mutant type SP",0.063 µg/mL
same,MIC Range,Enterococcus faecalis; [2],2 to 32 µg/mL
same,MIC Range,Enterococcus faecalis; [3],1 to 2 µg/mL
same,MIC50,Enterococcus faecalis; [2],16 µg/mL
same,MIC90,Enterococcus faecalis; [2],32 µg/mL
same,MIC50,Enterococcus faecalis; [3],1 µg/mL
same,MIC90,Enterococcus faecalis; [3],2 µg/mL
same,MIC90,Morganella morganii; Morganella morganii,0.125 µg/mL
same,MIC Range,Morganella morganii; Morganella morganii (n=40),0.016 to 8 µg/mL
same,MIC50,"Morganella morganii; Morganella morganii (n=40), read-out: MIC50",0.032 µg/mL
same,MIC50,Serratia marcescens; Serratia marcescens,0.125 µg/mL
same,MIC90,Serratia marcescens; Serratia marcescens (n=30),0.5 µg/mL
same,MIC Range,Serratia marcescens; Serratia marcescens (n=30),0.063 to 32 µg/mL
same,MIC,"Yersinia enterocolitica; 24 h, read-out: MIC (mg/L) Range",0.03 to 0.5 mg/L
same,MIC,Yersinia enterocolitica; read-out: MIC (mg/L) 50%,0.06 mg/L
same,MIC,Yersinia enterocolitica; read-out: MIC (mg/L) 90%,0.06 mg/L
